Earlier results in patent publication US20050238616A1, “Compositions for treatment of central nervous system neoplasms, and methods of making and using the same” (Guilford Pharmaceuticals, Inc., priority 2002, published 2005).

System: human glioma cell lines
Settings: several human glioma cell lines in vitro

In the case of CC(=O)O[C@H]1C(=O)[C@@]2(C)[C@H]([C@H](OC(=O)c3ccccc3)[C@]3(O)C[C@H](OC(=O)[C@H](O)[C@@H](NC(=O)c4ccccc4)c4ccccc4)C(C)=C1C3(C)C)[C@]1(OC(C)=O)CO[C@@H]1C[C@@H]2O [paclitaxel], the LD90 is given as 5 to 10 nM.
